Wnt5a expression data for one compound are collected here from patent US20220119446A1, “BIOMARKERS AND TREATMENT OF NEURONAL INJURY AND NEURODEGENERATION” (Board of Supervisons of Louisiana State University and …, priority 2018, published 2022).

This assay deals with Wnt5a. Description: Microarray of Wnt5a expression in 15-LOX-1 deficient ARPE-19 cells under uncompensated oxidative stress (UOS). It counts as cell-based, human. The following applies: UOS=600 μM H2O2 plus 10 ng/ml TNFα, 6 hours, UOS alone gives 2-fold increase. As for the experimental part:
Primary human RPE cultures can be from human eyecups, provided by the National Disease Research Interchange (NDRI), as described previously (Calandria et al. 2012). hRPE cells can be grown and maintained in high-glucose MEM (Life Technologies Corporation, Carlsbad, Calif.) supplemented with 10% FBS (Tissue Culture Biologicals, Inc., Long Beach, Calif.), 5% NCS, non-essential amino acids, Penicillin-Streptomycin (100 U/mL), human fibroblast growth factor (FGF) 10 ng/mL and incubated at 37° C. with a constant supply of 5% CO2. ARPE-19 cells, can be plated and grown in DMEM/F-12 containing 10% FBS and 1× penicillin/streptomycin at 37° C., 5% CO2, 99% relative humidity for 24 h. Silenced 15-LOX-1 cells, described in detail elsewhere (Calandria et al. 2009), are derived from ARPE-19 by stably silencing 15-LOX-1. 15-LOX-1 deficient cells can be maintained in the same medium as ARPE-19 with the addition of 500 μg/mL Geneticin (Life Technologies Corporation, Carlsbad, Calif.). […] Transfection efficiency can be assessed using an expression plasmid-carrying GFP ORF or by including a negative control siRNA conjugated with Alexa Fluor® 488 or 546 (QIAGEN, Hilden, Germany). siRNA efficiency can be assessed using SYBR green-based real-time PCR using the primers of Table 2 and the percentage of silencing achieved (FIG. 7). […]

Each structure is given as a SMILES string. Entries after “also recorded” stand apart in the source; their conditions may differ.

With `CC/C=C\C[C@H](O)\C=C/C=C/C=C/[C@H](O)C/C=C\C/C=C\CCC(=O)O` [NPD1, 10R,17S-dihydroxy-docosa-4Z,7Z,11E,13E,15Z,19Z-hexaenoic acid], the Wnt5a expression entry was “brought down to below controls; also recorded: reversed”.
